The values that follow come from patent EP1081144A2, “Process for making 5-lipoxygenase inhibitors having varied heterocyclic ring systems” (Pfizer Products Inc., priority 1999, dated 2001).

In brackets after ≈: the same amount, converted by molar mass.

The nature of the data set: Solubility of the reaction product in acetic acid and in acetic acid/water. The data set is classed as physicochemical. The following applies: organic solvent or mixture. On the procedure:
The reaction mixture was cooled to 22°C and granulated for 1 hour. The resulting slurry was then vacuum filtered and the filter cake was washed twice with water (100 ml). The filter cake (75 g) was placed in a 50°C vacuum drier with a nitrogen bleed, after which 23.04 g of solid product were obtained for a yield of 74.0%.

The solubility is how much of the substance goes into solution per volume. Turning to `NC(=O)C1(c2cccc(Sc3ccc(F)cc3)c2)CCOCC1` [Example 3, tetrahydro-4-[3-(4-fluorophenyl)thio]phenyl-2H-pyran-4-carboxamide], the solubility was ~4.5 mg/mL (≈ 13.6 mM) (in a 2:1 mixture of acetic acid and water); ~62 mg/mL (≈ 187 mM) (in acetic acid at room temperature).
